Data on one compound can be found in patent publication US12202841B2, “Therapeutic agents for enhancing epithelial and/or endothelial barrier function” (ARTUS THERAPEUTICS, INC., priority 2022, dated 2025).

For series [1], the system named is AhR signaling pathway. In words: Luciferase AhR-reporter gene (DRE) assay in human hepatic cells. The class given is cell-based. Particulars: FIG. 7A. The method, then: (§1) Step 2: Selected compounds from step 1 were tested at a range of concentrations for activation of Cyp1A1 mRNA levels using qRT-PCR, for activation of Cyp1A1 enzymatic activity (ethoxyresorufin-O-deethylase (EROD) assay), or activation of an AhR-reporter gene driven by a so-called dioxin-response element (DRE) using commercially available kits. Activation of Cyp1A1 mRNA levels, activation of Cyp1A1 enzymatic activity, or activation of an AhR reporter gene construct driven by a DRE is generally considered to be indicative of a compound's ability to function as an AhR ligand. When activated by a ligand, cytosolic AhR translocates to the nucleus and dimerizes with the AhR nuclear translocator protein ARNT. The AhR/ARNT complex then binds to DREs to activate gene transcription.
(§2) In these experiments, human hepatic cells (FIG. 7A) or human intestinal epithelial cells (FIG. 7B) containing a luciferase AhR-reporter gene construct driven by a so-called dioxin-response element (DRE) were treated with various concentrations of ARTX-413 or with various concentrations of the well-studied AhR ligand β-naphthoflavone (BNF) using commercially available kits. Activation of Cyp1A1 mRNA levels, activation of Cyp1A1 enzymatic activity, or activation of an AhR reporter gene construct driven by a DRE is generally considered to be indicative of a compound's ability to function as an AhR ligand.

The target of a further series is hERG (Homo sapiens, UniProt Q12809). In words: hERG assay. The settings on record: FIG. 8. The protocol: (§3) Step 4: Toxicity studies, including hERG and Ames tests, are conducted on compounds.
hERG, sequence (Q12809 whole entry): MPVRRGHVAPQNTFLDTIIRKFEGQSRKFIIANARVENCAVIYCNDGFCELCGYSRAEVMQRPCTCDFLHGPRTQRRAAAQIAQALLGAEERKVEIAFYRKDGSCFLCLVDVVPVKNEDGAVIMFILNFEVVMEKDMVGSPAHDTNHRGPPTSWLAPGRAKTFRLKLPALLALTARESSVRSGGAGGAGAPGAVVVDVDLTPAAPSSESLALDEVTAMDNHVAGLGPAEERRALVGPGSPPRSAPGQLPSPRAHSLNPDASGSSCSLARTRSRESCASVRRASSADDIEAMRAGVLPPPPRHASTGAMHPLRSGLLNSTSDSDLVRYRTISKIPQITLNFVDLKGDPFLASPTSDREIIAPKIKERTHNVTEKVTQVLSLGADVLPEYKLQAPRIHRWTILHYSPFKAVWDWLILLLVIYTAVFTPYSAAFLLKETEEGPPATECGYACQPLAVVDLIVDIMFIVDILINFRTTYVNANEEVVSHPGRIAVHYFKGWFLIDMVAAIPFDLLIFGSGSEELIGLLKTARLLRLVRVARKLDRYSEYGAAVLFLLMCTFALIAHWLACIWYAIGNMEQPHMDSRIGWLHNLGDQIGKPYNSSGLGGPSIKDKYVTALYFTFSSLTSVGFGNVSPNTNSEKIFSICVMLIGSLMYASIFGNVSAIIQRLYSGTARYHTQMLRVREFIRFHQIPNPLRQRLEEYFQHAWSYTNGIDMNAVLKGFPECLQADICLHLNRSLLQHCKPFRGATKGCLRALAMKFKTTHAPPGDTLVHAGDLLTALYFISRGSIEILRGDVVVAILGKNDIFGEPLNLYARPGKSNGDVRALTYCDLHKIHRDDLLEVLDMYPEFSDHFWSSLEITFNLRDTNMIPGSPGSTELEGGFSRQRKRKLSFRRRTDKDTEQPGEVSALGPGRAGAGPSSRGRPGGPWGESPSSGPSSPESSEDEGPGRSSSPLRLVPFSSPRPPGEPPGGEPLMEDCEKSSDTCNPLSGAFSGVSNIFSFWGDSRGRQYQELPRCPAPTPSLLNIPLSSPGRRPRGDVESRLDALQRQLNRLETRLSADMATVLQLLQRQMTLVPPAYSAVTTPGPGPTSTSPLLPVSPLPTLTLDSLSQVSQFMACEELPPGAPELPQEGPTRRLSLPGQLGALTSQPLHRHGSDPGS
For orientation: hERG is a cardiac potassium channel; its block is linked to QT prolongation.

The nature of series [2]: In vitro safety pharmacology assays.
The next series has as its system Salmonella strains. In words: Ames test. The settings on record: concentrations as high as 1.0 mg/mL. The protocol:
as §3
However, potential genotoxicity of ARTX-86 is consistent with its planar structure, which may allow ARTX-86 to intercalate into the DNA double helix. It's possible that reactive metabolites of ARTX-86 are being formed by the S9 fraction and the ability of ARTX-86 to intercalate into the DNA helix delivers the radicals or other toxic metabolites directly to the DNA.
Background: In the Ames test, an excess of revertant colonies over the control signals mutagenicity.

The subject of series [3] is murine DSS model of ulcerative colitis. In words: Murine DSS model of ulcerative colitis (acute). The class given is in vivo, mouse. Particulars: 20 mg/kg oral gavage on days 4, 6, 8, 10. The method, then: FIGS. 6A-F illustrate efficacy of ARTX-339, ARTX-405A, ARTX-413, and ARTX-425P1 in the murine DSS model of ulcerative colitis. A. C57BL/6 mice (7-8-week old mice) were supplied with 2.5% DSS in their drinking water for 7 days. Starting on day 4 post DSS treatment, mice were dosed once every other day with 100 μL vehicle (0.25% sodium carboxymethylcellulose used in the formulation of ARTX compounds), or 100 μL ARTX-339, ARTX-405A, ARTX-413, or ARTX-425P1 at 20 mg/kg body weight by oral gavage on days 4, 6, 8, and 10. Mice were euthanized on day 12. FITC dextran was administered to the mice via oral gavage 4 hours preceding euthanization. Following euthanization, colons were dissected, and their length measured. B. Measurements of colon length. C. Photographs of dissected colons. D. Measurement of FITC-dextran in serum following euthanization. […] Higher levels of serum FITC-dextran following DSS-treatment is an indication of a loss of barrier function. E. Body weight was measured every other day starting at day 0 with the initiation of DSS treatment. F. Disease activity index (DAI) scores were assigned every other day. The higher the DAI score, the worse the symptoms. **** indicates p<0.0001; *** indicates p<0.001; ** indicates=p<0.01.
A murine dextran sodium sulfate (DSS)-elicited model of ulcerative colitis was utilized to measure the efficacy of compounds in vivo. Oral administration of DSS in drinking water, a chemical colitogen with anticoagulant properties, leads to disruption of gut epithelium causing enhanced gut permeability, inflammation, and severe damage of gut barrier function^71,72. The rationale for using the murine DSS^71,72 model of UC is that it is a well-established gut epithelial barrier disrupting model that can be used to model both acute and chronic UC^70,71.
Starting on day 4 post DSS treatment, mice were dosed once every other day with 100 μL vehicle (0.25% sodium carboxymethylcellulose used in the formulation of ARTX compounds), or 100 μL ARTX-339, ARTX-405A, ARTX-413, or ARTX-425P1 at 20 mg/kg body weight by oral gavage on days 4, 6, 8, and 10. Mice were euthanized on day 12. FITC dextran was administered to the mice via oral gavage 4 hours prior to euthanization. Following euthanization, colons were dissected, and their lengths were measured.

The test system of series [4] is AhR signaling pathway. In words: Luciferase AhR-reporter gene (DRE) assay in human intestinal epithelial cells. The class given is cell-based. Particulars: FIG. 7B. The protocol: as §1, §2
In general terms: In a reporter assay the amount or activity of a reporter protein is the signal.

Molecules are shown by their SMILES.

Take `Oc1ncc2c(n1)OCc1cc(F)ccc1-2` [ARTX-413, 8-fluoro-6H-isochromeno[3,4-d]pyrimidin-3-ol]: the “activation of AhR reporter gene” value with AhR signaling pathway [1] and with AhR signaling pathway [4] was “activate the AhR signaling pathway” each time. In addition, the “hERG inhibition / risk of cardiotoxicity” value at hERG is “low risk of cardiotoxicity”. In series [2], the off-target effects result is “did not identify any significant off-target effects”. In addition, the Ames test result in the series on Salmonella strains is “non-genotoxic”. In addition, the “efficacy in the murine DSS model of colitis” value in series [3] (2.5% DSS, C57BL/6 mice) is “exhibited efficacy”. Moreover, in series [3] (FIG. 6E), the “DSS-elicited body weight loss” value is recorded as “highly effective”. In addition, in series [3] (FIG. 6F), the “disease activity index (DAI)” value is “highly effective”. The colon length result in series [3] (day 12, FIG. 6B, 6C) is on record as “highly effective”.
